# Measured values taken from patent publication US8268869B2, “Vinyl indazolyl compounds” (Eli Lilly and Company, priority 2009, dated 2012).
# Columns and labels:
# [1] = system: FGF receptor 1 (b-FGF induced pERK in HUVEC); assay: AlphaScreen SureFire Detection of ERK phosphorylation (Thr202/Tyr204) in HUVEC; format: cell-based; settings: Homo sapiens, b-FGF 50 ng/mL, 20 mg/mL BSA
# Experimental: The effect of compounds on the inhibition of FGF receptor 1 is measured by monitoring the phosphorylation of ERK (pERK) in response to basic-Fibroblast growth factor (b-FGF) stimulation in Human Umbilical Endothelial cells (HUVEC). The levels of pERK formed are measured using the ALPHASCREEN® […]® system (TGR Biosciences, TGRES50K). This is a homogeneous assay format utilizing the immuno-sandwich capture of the phosphorylated analyte followed by detection using antibody-coated ALPHASCREEN® beads (Perkin Elmer) to generate an amplified signal.
# HUVEC cells are recovered and maintained in growth medium consisting of endothelial cell basal medium (Clonetics, CC-3132) supplemented with 10% FBS 0.4% bovine brain extract 0.1% hydrocortisone, 0.1% gentamicin sulfate amphotericin-B (GA-1000), and 0.1% epidermal growth factor, human recombination until passage 7. For the assay, cells are harvested by standard procedures and then counted. Cells (20,000/well) are plated in 100 μL of growth medium into 96 well Poly-D-Lysine coated plates (BD, 354640). Plates are incubated overnight at 37° C., 5% CO2.
# On the day of the assay, cells are serum starved in 100 μL EBM (endothelial cell basal) medium containing 1.5% FBS and 20 mg/mL BSA for 3 hours at 37° C., 5% CO2, then treated with 20 μL of 3× serially diluted compounds in starvation medium for 1 hour at 37° C. […]
# [2] = system: FGF9 induced ERK phosphorylation in Human RT112 bladder carcinoma cells; assay: FGF9 induced p-ERK with BSA in RT112 cells; format: cell-based; settings: RT-112, relative IC50, RT112 cells, 20 mg/mL BSA, 500 ng/mL FGF9
# Experimental: Human RT112 bladder carcinoma cells are seeded at a density of 5,000 cells per well in 100 μL RPMI 1640 (Gibco 11875-085) supplemented with 10% fetal bovine serum (FBS, Gibco 10082-147) and 1% of a penicillin/streptomycin solution (Gibco 15140-122) in CELLBIND® 96 well plates (Corning 3340) and incubated overnight at 37° C. The next morning the growth medium is removed and replaced with 100 μL RPMI 1640 supplemented with 20 mg/mL bovine serum albumin (BSA). After 3 hours of incubation at 37° C., 20 μL of 3× serially diluted compounds in RPMI 1640 with 20 mg/mL BSA in 6% DMSO are added to each well. This yielded a 10 point dose-response curve ranging from 10-0.005 μM in 1% DMSO. The incubation is continued for 1 hour at 37° C. The cells are stimulated with 50 μL of a […] FGF9 (R&D Systems 273-F9) solution in serum free RPMI to give a final concentration of 500 ng/mL FGF9. Cells are fixed by the addition of 30 μL of a 25% formaldehyde solution in phosphate buffered saline (PBS) (3.7% formaldehyde final concentration), and incubated 30 minutes at RT. Cells are washed 3× with PBS, followed by the addition of 100 μL of cold methanol and incubated for 30 minutes at −20° C. The methanol is removed and the cells are treated with PBS containing 0.1% TRITON® X-100 (PBST), washed 3× with PBS, and incubated 15 minutes at RT. […]
# Kdr = target: T1, Kdr (Mus musculus, UniProt P35918); assay: In vivo Kdr target inhibition assay (VEGF induced phospho-Kdr in mouse heart); settings: female nude mice, oral gavage, VEGF i.v., heart tissue
# T1 construct: Heart tissues are collected and homogenized as described above; from tissue; host or cells: heart of female nude mice (CD1/nu/nu)
# Experimental: To assess the activity of this compound against Kdr, female nude mice (CD1/nu/nu) are acclimated and treated as described above except VEGF is used to induce Kdr autophosphorylation {VEGF (6 ug/animal, R & D Systems 493-MV/CF). Heart tissues are collected and homogenized as described above. The resulting homogenates are analyzed using MSD® phospho-Kdr ELISA (Meso Scale Discovery, catalog number N41ZA-1) to determine tissue phospho-Kdr level. […] The positive control group is treated with VEGF […]) in saline administered intravenously (as minimum p-KDR inhibition of 0%).
# [3] = system: human gastric cancer cells SNU-16; assay: Xenograft tumor model SNU-16 (gastric); format: in vivo, nude mice; settings: oral gavage
# Text: (§1) One of Human bladder cancer cells RT112 (European Collection of Cell Cultures), human multiple myeloma cells OPM-2 (German Collection of Microorganisms and Cell Cultures), human non-small cell lung cancer (NSCL) cells NCI-H460 (American Type Culture Collection), human pancreatic cancer cells BxPC-3 (American Type Culture Collection) or human gastric cancer cells SNU-16 (American Type Culture Collection) are expanded in culture, according to KOREAN CELL LINE BANK (KCLB) recommendations, harvested and injected subcutaneously onto the rear flank of nude mice. When tumors are established (7-21 days after implant), animals are randomized and grouped into control and test groups. Test compound is prepared in an appropriate vehicle (i.e. formulated in 10% Acacia), and the test compound and a vehicle control are administered by oral gavage. Tumor response is determined by tumor volume measurement performed twice a week during the course of treatment and reported as percent inhibition of tumor volume versus the vehicle control group.
# [4] = system: human non-small cell lung cancer (NSCL) cells NCI-H460; assay: Xenograft tumor model NCI-H460 (NSCLC); format: in vivo, nude mice; settings: oral gavage
# Text: as §1
# [5] = system: human pancreatic cancer cells BxPC-3; assay: Xenograft tumor model BxPC-3 (pancreatic); format: in vivo, nude mice; settings: oral gavage
# Text: as §1
# [6] = system: Human bladder cancer cells RT112; assay: Xenograft tumor model RT-112 (bladder); format: in vivo, nude mice; settings: oral gavage
# Text: as §1
# [7] = system: human multiple myeloma cells OPM-2; assay: Xenograft tumor model OPM-2 (multiple myeloma); format: in vivo, nude mice; settings: oral gavage
# Text: as §1
# T1 sequence (P35918 20-1345): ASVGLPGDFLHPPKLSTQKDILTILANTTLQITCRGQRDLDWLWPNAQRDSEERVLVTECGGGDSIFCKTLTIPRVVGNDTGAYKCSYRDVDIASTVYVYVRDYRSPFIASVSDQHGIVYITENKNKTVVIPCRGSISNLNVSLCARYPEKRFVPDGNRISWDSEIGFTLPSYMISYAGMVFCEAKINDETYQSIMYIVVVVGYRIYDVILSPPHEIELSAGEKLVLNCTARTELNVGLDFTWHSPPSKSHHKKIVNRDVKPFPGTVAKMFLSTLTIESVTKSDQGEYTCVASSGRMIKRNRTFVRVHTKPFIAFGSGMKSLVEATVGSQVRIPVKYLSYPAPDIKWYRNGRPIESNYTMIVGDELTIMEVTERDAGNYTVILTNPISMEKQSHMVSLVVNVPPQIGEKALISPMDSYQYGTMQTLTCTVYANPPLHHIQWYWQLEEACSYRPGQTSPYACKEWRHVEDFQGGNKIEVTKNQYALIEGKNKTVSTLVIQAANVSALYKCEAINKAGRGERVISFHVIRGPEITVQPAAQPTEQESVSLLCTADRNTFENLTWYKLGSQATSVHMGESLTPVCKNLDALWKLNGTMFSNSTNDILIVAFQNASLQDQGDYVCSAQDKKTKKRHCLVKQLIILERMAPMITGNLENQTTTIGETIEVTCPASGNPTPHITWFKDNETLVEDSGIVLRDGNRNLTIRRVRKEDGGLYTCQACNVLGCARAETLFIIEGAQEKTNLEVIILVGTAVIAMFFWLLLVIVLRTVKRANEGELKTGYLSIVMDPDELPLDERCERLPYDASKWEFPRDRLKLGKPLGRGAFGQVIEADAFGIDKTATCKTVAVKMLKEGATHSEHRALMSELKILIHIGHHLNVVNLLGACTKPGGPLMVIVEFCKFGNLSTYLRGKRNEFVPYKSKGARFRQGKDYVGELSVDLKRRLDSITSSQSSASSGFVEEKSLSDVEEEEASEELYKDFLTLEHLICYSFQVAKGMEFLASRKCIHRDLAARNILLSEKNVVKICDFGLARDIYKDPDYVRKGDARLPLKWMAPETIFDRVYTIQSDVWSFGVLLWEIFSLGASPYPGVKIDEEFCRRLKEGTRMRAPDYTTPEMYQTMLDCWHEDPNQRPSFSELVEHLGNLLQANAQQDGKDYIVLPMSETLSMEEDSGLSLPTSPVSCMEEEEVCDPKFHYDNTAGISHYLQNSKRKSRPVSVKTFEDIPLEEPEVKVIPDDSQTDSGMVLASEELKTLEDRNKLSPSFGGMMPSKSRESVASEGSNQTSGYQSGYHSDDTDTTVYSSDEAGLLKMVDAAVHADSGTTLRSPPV
smiles,measurement,setting,value
"C[C@@H](Oc1ccc2[nH]nc(/C=C/c3cnn(CCO)c3)c2c1)c1c(Cl)cncc1Cl [Example 1, (R)-(E)-2-(4-(2-(5-(1-(3,5-Dichloropyridin-4-yl)ethoxy)-1H-indazol-3-yl)vinyl)-1H-pyrazol-1-yl)ethanol]",IC50,[1],0.6 nM
same,IC50,[2],0.4 nM
same,TEC90 (concentration necessary to achieve 90% inhibition of phospho-Kdr),Kdr,252 nM
same,TED50 (dose necessary to achieve 50% inhibition of phospho-Kdr),Kdr,1.34 mg/kg
same,percent inhibition of tumor volume versus vehicle control,"[3]; SNU-16, 3 mg/kg BID for 17 days",83%
same,percent inhibition of tumor volume versus vehicle control,"[3]; SNU-16, 3 mg/kg QD for 17 days",62%
same,percent inhibition of tumor volume versus vehicle control,"[4]; NCI-H460, 3 mg/kg BID for 17 days",69%
same,percent inhibition of tumor volume versus vehicle control,"[4]; NCI-H460, 3 mg/kg QD for 17 days",46%
same,percent inhibition of tumor volume versus vehicle control,"[5]; BxPC-3, 3 mg/kg BID for 21 days",55%
same,percent inhibition of tumor volume versus vehicle control,"[5]; BxPC-3, 3 mg/kg QD for 21 days",1%
same,percent inhibition of tumor volume versus vehicle control,"[6]; RT-112, 3 mg/kg BID for 21 days",85.9%
same,percent inhibition of tumor volume versus vehicle control,"[6]; RT-112, 3 mg/kg QD for 21 days",41.3%
same,percent inhibition of tumor volume versus vehicle control,"[7]; OPM-2, 3 mg/kg BID for 21 days",84%
same,percent inhibition of tumor volume versus vehicle control,"[7]; OPM-2, 3 mg/kg QD for 21 days",68%
